Test results from patent US20230114728A1 (Venatorx Pharmaceuticals, Inc., priority 2019, published 2023).
Values after ≈ are worked out from the molar mass of the structure shown.

Tests used:
[1] = molecular target: T1, P. aeruginosa PBP3 (Pseudomonas aeruginosa, UniProt G3XD46); experiment: Bocillin-FL fluorescence polarization competition binding assay, P. aeruginosa PBP3; settings: fluorescence polarization competition binding assay using Bocillin-FL
T1 construct: made in house
How it was run: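 Binding of boronic acid inhibitors to purified Pseudomonas aeruginosa (PA01) PBP3 was measured by fluorescence polarization competition with Bocillin-FL, a fluorescent penicillin V. Reactions of 80 μl contained 0.75 μM PBP3 and 0.1 μM Bocillin-FL in 50 mM Hepes (pH 8.0), 300 mM NaCl and 5% (v/v) glycerol, in black 384-well plates. FP (Excitation 490 nm, Emission 520 nm) was read for up to 60 minutes. EC50 is the concentration that halves PBP-bound Bocillin-FL.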

[2] = test system: E. coli 901C; experiment: Broth microdilution MIC in CAMHB; type: cell-based; settings: Escherichia coli; E. coli 901C (hyper-permeable); MHB; read-out: Minimum Inhibitory Concentration, E. coli 901C
How it was run: (§1)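 Colonies from cation-adjusted Mueller Hinton agar are grown in broth (3-5 h, 37° C), adjusted by OD600, and added at 2-8×10^5 CFU/mL to 2-fold compound dilutions. After 16-20 h at 37° C, the lowest concentration without growth is taken as MIC.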

[3] = test system: E. coli D22; experiment: Broth microdilution MIC in CAMHB; type: cell-based; settings: Escherichia coli; E. coli D22 (hyper-permeable); MHB; read-out: Minimum Inhibitory Concentration, E. coli D22
How it was run: as §1

[4] = test system: K. pneumoniae 848844 producing SHV-11 and KPC-2; experiment: Broth microdilution MIC in CAMHB; type: cell-based; settings: Klebsiella pneumoniae, read-out: Minimum Inhibitory Concentration, K. pneumoniae 848844
How it was run: as §1

[5] = test system: P. aeruginosa ATCC 35151; experiment: Broth microdilution MIC in CAMHB; type: cell-based; settings: Pseudomonas aeruginosa, ATCC35151; MHB; hyper-permeable strain; read-out: Minimum Inhibitory Concentration, P. aeruginosa ATCC 35151
How it was run: as §1

T1 sequence (G3XD46 whole entry): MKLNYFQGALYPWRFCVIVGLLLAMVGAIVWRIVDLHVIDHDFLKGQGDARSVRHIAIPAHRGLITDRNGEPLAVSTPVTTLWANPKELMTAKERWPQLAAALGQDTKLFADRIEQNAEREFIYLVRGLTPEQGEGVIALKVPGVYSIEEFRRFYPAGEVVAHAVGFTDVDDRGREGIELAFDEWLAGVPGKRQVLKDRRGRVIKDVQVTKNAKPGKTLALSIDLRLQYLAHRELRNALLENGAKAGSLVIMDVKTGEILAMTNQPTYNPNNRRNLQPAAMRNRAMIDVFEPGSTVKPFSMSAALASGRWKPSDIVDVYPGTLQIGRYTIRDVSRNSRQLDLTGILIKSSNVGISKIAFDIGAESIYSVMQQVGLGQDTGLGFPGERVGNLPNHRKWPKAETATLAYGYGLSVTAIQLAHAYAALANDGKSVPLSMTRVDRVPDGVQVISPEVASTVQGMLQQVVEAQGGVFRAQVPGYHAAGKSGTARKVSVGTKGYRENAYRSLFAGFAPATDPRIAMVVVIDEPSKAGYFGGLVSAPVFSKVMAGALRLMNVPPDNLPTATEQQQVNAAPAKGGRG

Compound	P. aeruginosa PBP3 Potency [1]	MIC [2]	MIC [3]	MIC [4]	MIC [5]
NS(=O)(=O)Nc1ccc(F)c(C(NC(=O)N2CCN(CCF)C(=O)C2=O)C(=O)N[C@H]2Cc3cccc(C(=O)O)c3OB2O)c1 (stereo partly drawn) [Example 198, (3R)-3-(2-(2-fluoro-5-(sulfamoylamino)phenyl)-2-(4-(2-fluoroethyl)-2,3-dioxopiperazine-1-carboxamido)acetamido)-2-hydroxy-3,4-dihydro-2H-benzo[e][1,2]oxaborinine-8-carboxylic acid]	D (D represents a potency <10 μM)	< 0.25 µg/mL	0.5 to 1 µg/mL (≈ 0.783 to 1.57 µM)	> 128 µg/mL	0.5 to 1 µg/mL (≈ 0.783 to 1.57 µM)
CCN1CCN(C(=O)NC(C(=O)N[C@H]2Cc3cccc(C(=O)O)c3OB2O)c2cc(C#N)c(O)cc2F)C(=O)C1=O (stereo partly drawn) [Example 209, (3R)-3-(2-(5-cyano-2-fluoro-4-hydroxyphenyl)-2-(4-ethyl-2,3-dioxopiperazine-1-carboxamido)acetamido)-2-hydroxy-3,4-dihydro-2H-benzo[e][1,2]oxaborinine-8-carboxylic acid]	D (D represents a potency <10 μM)	< 0.25 µg/mL	2 to 4 µg/mL (≈ 3.53 to 7.05 µM)	> 128 µg/mL	< 0.25 µg/mL
CCN1CCN(C(=O)NC(C(=O)N[C@H]2Cc3cccc(C(=O)O)c3OB2O)c2c(F)cc(NC(C)=O)cc2F)C(=O)C1=O (stereo partly drawn) [Example 188, (3R)-3-(2-(4-acetamido-2,6-difluorophenyl)-2-(4-ethyl-2,3-dioxopiperazine-1-carboxamido)acetamido)-2-hydroxy-3,4-dihydro-2H-benzo[e][1,2]oxaborinine-8-carboxylic acid]	D (D represents a potency <10 μM)	< 0.25 µg/mL	2 to 4 µg/mL (≈ 3.33 to 6.65 µM)	> 128 µg/mL	0.5 to 1 µg/mL (≈ 0.831 to 1.66 µM)
NCCN1CCN(C(=O)N[C@@H](C(=O)N[C@H]2Cc3cccc(C(=O)O)c3OB2O)c2c(O)cc(O)cc2F)C(=O)C1=O (single isomer, unassigned) [Example 194]	D (D represents a potency <10 μM)	0.5 to 1 µg/mL (≈ 0.872 to 1.74 µM)	2 to 4 µg/mL (≈ 3.49 to 6.98 µM)	32 to 64 µg/mL (≈ 55.8 to 112 µM)	0.5 to 1 µg/mL (≈ 0.872 to 1.74 µM)
NCCN1CCN(C(=O)N[C@@H](C(=O)N[C@H]2Cc3cccc(C(=O)O)c3OB2O)c2ccc(O)c(Cl)c2F)C(=O)C1=O (single isomer, unassigned) [Example 186]	D (D represents a potency <10 μM)	0.5 to 1 µg/mL (≈ 0.845 to 1.69 µM)	2 to 4 µg/mL (≈ 3.38 to 6.76 µM)	32 to 64 µg/mL (≈ 54.1 to 108 µM)	< 0.25 µg/mL
NCCCN1CCN(C(=O)N[C@@H](C(=O)N[C@H]2Cc3cccc(C(=O)O)c3OB2O)c2c(O)cc(O)cc2F)C(=O)C1=O (single isomer, unassigned) [Example 195]	D (D represents a potency <10 μM)	0.5 to 1 µg/mL (≈ 0.851 to 1.7 µM)	2 to 4 µg/mL (≈ 3.41 to 6.81 µM)	32 to 64 µg/mL (≈ 54.5 to 109 µM)	0.5 to 1 µg/mL (≈ 0.851 to 1.7 µM)
CCN1CCN(C(=O)NC(C(=O)N[C@H]2Cc3cccc(C(=O)O)c3OB2O)c2ccc(C(=O)O)c(O)c2)C(=O)C1=O (stereo partly drawn) [Example 196, (3R)-3-(2-(4-carboxy-3-hydroxyphenyl)-2-(4-ethyl-2,3-dioxopiperazine-1-carboxamido)acetamido)-2-hydroxy-3,4-dihydro-2H-benzo[e][1,2]oxaborinine-8-carboxylic acid]	D (D represents a potency <10 μM)	< 0.25 µg/mL	0.5 to 1 µg/mL (≈ 0.88 to 1.76 µM)	32 to 64 µg/mL (≈ 56.3 to 113 µM)	< 0.25 µg/mL
O=C(O)c1cccc2c1OB(O)[C@@H](NC(=O)C(NC(=O)N1CCN(CC3CNC3)C(=O)C1=O)c1c(F)cc(O)cc1F)C2 (stereo partly drawn) [Example 193, (3R)-3-(2-(4-(azetidin-3-ylmethyl)-2,3-dioxopiperazine-1-carboxamido)-2-(2,6-difluoro-4-hydroxyphenyl)acetamido)-2-hydroxy-3,4-dihydro-2H-benzo[e][1,2]oxaborinine-8-carboxylic acid]	D (D represents a potency <10 μM)	0.5 to 1 µg/mL (≈ 0.831 to 1.66 µM)	2 to 4 µg/mL (≈ 3.33 to 6.65 µM)	32 to 64 µg/mL (≈ 53.2 to 106 µM)	0.5 to 1 µg/mL (≈ 0.831 to 1.66 µM)
NCCN1CCN(C(=O)N[C@H](C(=O)N[C@H]2Cc3cccc(C(=O)O)c3OB2O)c2ccc(O)c(Cl)c2F)C(=O)C1=O (single isomer, unassigned) [Example 187]	B (B represents a potency between 30 μM and 500 μM inclusive)	2 to 4 µg/mL (≈ 3.38 to 6.76 µM)	32 to 64 µg/mL (≈ 54.1 to 108 µM)	> 128 µg/mL	2 to 4 µg/mL (≈ 3.38 to 6.76 µM)
CCN1CCN(C(=O)NC(C(=O)N[C@H]2Cc3cccc(C(=O)O)c3OB2O)c2cc(NS(N)(=O)=O)ccc2F)C(=O)C1=O (stereo partly drawn) [Example 197, (3R)-3-(2-(4-ethyl-2,3-dioxopiperazine-1-carboxamido)-2-(2-fluoro-5-(sulfamoylamino)phenyl)acetamido)-2-hydroxy-3,4-dihydro-2H-benzo[e][1,2]oxaborinine-8-carboxylic acid]	D (D represents a potency <10 μM)	< 0.25 µg/mL	0.5 to 1 µg/mL (≈ 0.806 to 1.61 µM)	> 128 µg/mL	< 0.25 µg/mL
NCCN1CCN(C(=O)N[C@H](C(=O)N[C@H]2Cc3cccc(C(=O)O)c3OB2O)c2c(F)cccc2F)C(=O)C1=O (single isomer, unassigned) [Example 204]	B (B represents a potency between 30 μM and 500 μM inclusive)	8 to 16 µg/mL (≈ 14.3 to 28.6 µM)	> 128 µg/mL	> 128 µg/mL	32 to 64 µg/mL (≈ 57.2 to 114 µM)
NCCN1CCN(C(=O)N[C@@H](C(=O)N[C@H]2Cc3cccc(C(=O)O)c3OB2O)c2c(F)cccc2Cl)C(=O)C1=O (single isomer, unassigned) [Example 205]	C (C represents a potency between 10 and 30 μM)	8 to 16 µg/mL (≈ 13.9 to 27.8 µM)	32 to 64 µg/mL (≈ 55.6 to 111 µM)	> 128 µg/mL	8 to 16 µg/mL (≈ 13.9 to 27.8 µM)
CCN1CCN(C(=O)NC(C(=O)N[C@H]2Cc3ccc(F)c(C(=O)O)c3OB2O)c2ncc(C(=O)O)cc2F)C(=O)C1=O (stereo partly drawn) [Example 33, 6-(2-(((R)-8-carboxy-7-fluoro-2-hydroxy-3,4-dihydro-2H-benzo[e][1,2]oxaborinin-3-yl)amino)-1-(4-ethyl-2,3-dioxopiperazine-1-carboxamido)-2-oxoethyl)-5-fluoronicotinic acid]	D (D represents a potency <10 μM)	2 to 4 µg/mL (≈ 3.39 to 6.79 µM)	2 to 4 µg/mL (≈ 3.39 to 6.79 µM)	> 128 µg/mL	0.5 to 1 µg/mL (≈ 0.849 to 1.7 µM)
NCCN1CCN(C(=O)N[C@@H](C(=O)N[C@H]2Cc3cccc(C(=O)O)c3OB2O)c2ccc(O)c([N+](=O)[O-])c2)C(=O)C1=O (single isomer, unassigned) [Example 199]	D (D represents a potency <10 μM)	0.5 to 1 µg/mL (≈ 0.856 to 1.71 µM)	8 to 16 µg/mL (≈ 13.7 to 27.4 µM)	> 128 µg/mL	0.5 to 1 µg/mL (≈ 0.856 to 1.71 µM)
CCN1CCN(C(=O)NC(C(=O)N[C@H]2Cc3cccc(C(=O)O)c3OB2O)c2cc(C#N)c(OC)cc2F)C(=O)C1=O (stereo partly drawn) [Example 192, (3R)-3-(2-(5-cyano-2-fluoro-4-methoxyphenyl)-2-(4-ethyl-2,3-dioxopiperazine-1-carboxamido)acetamido)-2-hydroxy-3,4-dihydro-2H-benzo[e][1,2]oxaborinine-8-carboxylic acid]	D (D represents a potency <10 μM)	2 to 4 µg/mL (≈ 3.44 to 6.88 µM)	32 to 64 µg/mL (≈ 55 to 110 µM)	> 128 µg/mL	2 to 4 µg/mL (≈ 3.44 to 6.88 µM)
